PMC7590976, “Detection of Active Granzyme A in NK92 Cells with Fluorescent Activity-Based Probe” (Journal of Medicinal Chemistry, 2020)

How the values were obtained:
GrM = assay: Residual activity assay, GrM; type: biochemical, human; conditions: 74 nM GrM preincubated with 10 μM compound 30 min 37 °C; substrate Ac-Lys-Val-Pro-Leu-ACC
Description: (§1) We wondered whether the selectivity of our SK15-based molecules for GrA would be maintained by substrate structure modifications, such as replacing ACC with a diphenyl phosphonate warhead and changing the N-terminus from acetyl to the cyanine derivative Cy5.
(§2) As a control, enzymes without inhibitor and probe were tested.

hNE = assay: Residual activity assay, hNE; type: biochemical, human; conditions: 3.3 nM hNE preincubated with 10 μM compound 30 min 37 °C; substrate Ac-Arg(NO)2-Glu(Bzl)-Oic-Abu-ACC
Description: as §1, §2

GrA in NK92 cells = assay: SK15.5 cell membrane permeability assay / GrA labeling in live NK92 cells; type: cell-based, human; conditions: SK15I 10 μM, 1 h, prior to 1 μM SK15.5
Description: (B) SK15.5 probe cell permeability. […] The results represent two biological replicates.
We noticed a strongly labeled species within 30 min, and the intensity increased until 2 h (Figure 5B). […] As an additional control, immunolabeling was performed and confirmed the selective binding of the probe with GrA (for full size blots, please see Figure S3).
As a control, GrA was preinhibited with 10 μM (final concentration) SK15I and incubated for 1 h at 37 °C, and untreated samples were simultaneously incubated. At the end of every time point, the cells were centrifuged, washed twice with DPBS, centrifuged and treated with 100 μL of 1× SDS/DTT solution. Afterward, the samples were sonicated (10 kHz for 10 s) and loaded onto a 4–12% Bis-Tris 10-well gel (Invitrogen). SDS-PAGE was run at 165 V for 37 min, and membrane transfer (10 V, 60 min) was subsequently performed.

GrA [1] = biological target: T1, GrA (Homo sapiens, UniProt P12544); assay: Second-order inhibition rate constant kobs/I toward GrA, pseudo-first-order conditions; type: biochemical; conditions: GrA; versus 2000 M^–1 s^–1
T1 construct: made in house; host or cells: Pichia pastoris
T1 sequence (P12544 29-262): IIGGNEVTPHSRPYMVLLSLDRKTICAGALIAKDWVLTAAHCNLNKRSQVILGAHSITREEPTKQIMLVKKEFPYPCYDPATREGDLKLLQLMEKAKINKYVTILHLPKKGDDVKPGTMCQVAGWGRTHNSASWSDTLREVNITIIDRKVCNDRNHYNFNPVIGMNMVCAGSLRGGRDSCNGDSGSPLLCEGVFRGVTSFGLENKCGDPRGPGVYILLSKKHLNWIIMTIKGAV
Description: We calculated the apparent second-order rate constants for inhibition (kobs(app)/I) of GrA-mediated SK15I under pseudo first-order conditions by serially diluting the new inhibitor in the range of 714–333 nM with a constant optimal substrate (SK15) concentration of 10 μM (Figure 3B).
The second-order inhibition rate constant (kobs/I expressed in M^–1 s^–1) toward GrA was measured under pseudo-first-order kinetic conditions. Ten microliters of substrate (SK15) was mixed with varying inhibitor or probe concentrations and incubated at 37 °C for 15 min. […] Experiments are presented as the average of at least three experiments with standard deviation.

GrB = biological target: T2, GrB (Homo sapiens, UniProt P10144); assay: Residual activity assay, GrB; type: biochemical; conditions: 18 nM GrB preincubated with 10 μM compound 30 min 37 °C; 200 μM GrBref
T2 construct: made in house; host or cells: Pichia pastoris
T2 sequence (P10144 21-247): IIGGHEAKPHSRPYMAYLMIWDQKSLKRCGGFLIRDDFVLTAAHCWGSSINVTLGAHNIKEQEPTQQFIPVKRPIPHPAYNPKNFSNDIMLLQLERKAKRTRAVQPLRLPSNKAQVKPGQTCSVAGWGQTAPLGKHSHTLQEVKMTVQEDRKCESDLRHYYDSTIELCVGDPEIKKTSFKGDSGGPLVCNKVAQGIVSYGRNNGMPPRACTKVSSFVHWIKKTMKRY
Description: as §1, §2

GrA [2] = biological target: T1, GrA; assay: In-gel detection of recombinant GrA with SK15.5 (SDS-PAGE); type: binding; conditions: SK15I 1 μM, 1 h, 37 °C, then SK15.5 500 nM 1 h
Description: Next, we tested the utility of our fluorescent probe for the in-gel detection of active GrA in test samples. […] We then ran a simple SDS-PAGE assay to detect labeled GrA (Figure 4A). […] In our hands, the probe bound to the enzyme, as indicated by the fluorescent 35 kDa species, after the minimal incubation time (5 min). […] The optimal concentration was 500 nM (strong signal) (Figure 4B).
(A) Incubation time of SK15.5 with enzyme optimization. […] (D) GrA in-gel detection in NK92 cell lysates. […] The results are representative of at least 2 replicates.
In contrast to the closely related GrB, GrH, GrM, and GrK, GrA is a homodimer formed by stable disulfide-linked subunits.[26] Since the subunits are oriented in opposite directions, the surrounding area may form an exosite.[26]
In the incubation time optimization assay, the enzyme and probe concentrations were constant (250 nM), and the incubation time ranged from 0 to 120 min. […] Enzyme was incubated with probe in a volume of 80 μL, followed by the reduction with 40 μL of 3 × SDS/DTT for 5 min at 95 °C. Samples were centrifuged (3 min, 4500g), and 40 μL of each sample was run on 4–12% Bis-Tris 10-well gels (Invitrogen). The first well was loaded with 2 μL of the protein marker PageRuler Plus Prestained Protein Ladder (Thermo Scientific). Electrophoresis was conducted at 165 V for 37 min at room temperature. […] Total sample volume was 80 μL, to which 40 μL of 3× SDS/DTT was added and boiled for 5 min at 95 °C. Samples were centrifuged (3 min, 4500g), and 40 μL of each sample was run on 4–12% Bis-Tris 10-well gels (Invitrogen). Each form of the enzyme without SK15.5 and probe itself were run as controls. The first well was loaded with 2 μL of protein marker PageRuler Plus Prestained Protein Ladder (Thermo Scientific). Electrophoresis and membrane transfer were conducted in the same manner as above.

GrK = biological target: T3, GrK (Homo sapiens, UniProt P49863); assay: Residual activity assay, GrK; type: biochemical; conditions: 488 nM GrK preincubated with 10 μM compound 30 min 37 °C; 200 μM GrKref
T3 construct: made in house; host or cells: Pichia pastoris
T3 sequence (P49863 27-264): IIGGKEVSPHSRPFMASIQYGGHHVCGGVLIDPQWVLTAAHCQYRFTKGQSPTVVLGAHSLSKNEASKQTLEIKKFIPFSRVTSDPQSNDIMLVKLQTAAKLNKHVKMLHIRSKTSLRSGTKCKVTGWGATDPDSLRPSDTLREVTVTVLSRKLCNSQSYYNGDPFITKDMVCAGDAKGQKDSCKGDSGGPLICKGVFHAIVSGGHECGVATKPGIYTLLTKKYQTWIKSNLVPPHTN
Description: as §1, §2

MDA-MB-231 cells = conditions: MDA-MB-231, 24 h, MTS at 490 nm, 1 nM to 10 μM tested, duplicate
PR3 = assay: Residual activity assay, PR3; type: biochemical; conditions: 3.4 nM PR3 preincubated with 10 μM compound 30 min 37 °C; substrate Ac-Glu(O-Bzl)-Lys(Ac)-Hyp(Bzl)-Nva-ACC
Description: as §1, §2

GrA [3] = assay: Residual activity assay, GrA preinhibited with SK15I or SK15.5; type: biochemical, human; conditions: substrate SK15; preincubation 30 min, 37 °C
Description: as §1, §2

Substance: MeOSuc-Tic-Gly-Oic-Arg^P(OPh)2 [SK15I]
- inhibition of GrM (GrM): less than 20%
- inhibition of hNE (hNE): less than 20%
- effect of inhibitor pretreatment on SK15.5 probe binding in live cells (in words) (GrA in NK92 cells): substantial decrease in probe binding
- kobs/I relative to the reference inhibitor (GrA [1]): approximately 85 fold
- inhibition of GrB (GrB): less than 20%
- effect of preinhibition with inhibitor on SK15.5 probe binding to GrA (in words) (GrA [2]): prevented probe binding
- inhibition of GrK (GrK): less than 20%
- concentration above which cytotoxic (MDA-MB-231 cells): > 10 µM
- inhibition of PR3 (PR3): less than 20%
- residual GrA activity after preinhibition (in words) (GrA [3]): completely blocked
